# In paper PMC4126345, “Large-scale filament formation inhibits the activity of CTP synthetase” (eLife, 2014):
# Columns and labels:
# [1] = target: T1, CTP synthetase (CtpS) (Escherichia coli, UniProt P0A7E5); test: CTP production (transmittance at […] nm) and light scattering of purified CtpS with DON; format: biochemical
# T1 construct: gene pyrG; full-length
# [2] = target: T1, CTP synthetase (CtpS); test: cryo-EM difference density in the CtpS filament ([…] Å); format: binding
# [3] = target: T1, CTP synthetase (CtpS); test: purified enzyme turnover; ATP with UTP depolymerizes and reactivates CtpS (light scattering and activity); format: biochemical
# [4] = target: T2, CTP synthetase (CtpS E277R) (Escherichia coli, UniProt P0A7E5, E277R); test: CTP inhibition of CTP synthesis by purified enzyme (absorbance at […] nm), […] enzyme; format: biochemical
# T2 construct: gene pyrG; full-length, 6XHis tag not cleaved
# [5] = target: T1, CTP synthetase (CtpS); test: purified enzyme turnover to CTP; UTP with ATP depolymerizes and reactivates CtpS (light scattering and activity); format: biochemical
# [6] = target: T1, CTP synthetase (CtpS); test: CTP production by purified enzyme initiated by glutamine; format: biochemical
# T1 sequence (P0A7E5 2-545): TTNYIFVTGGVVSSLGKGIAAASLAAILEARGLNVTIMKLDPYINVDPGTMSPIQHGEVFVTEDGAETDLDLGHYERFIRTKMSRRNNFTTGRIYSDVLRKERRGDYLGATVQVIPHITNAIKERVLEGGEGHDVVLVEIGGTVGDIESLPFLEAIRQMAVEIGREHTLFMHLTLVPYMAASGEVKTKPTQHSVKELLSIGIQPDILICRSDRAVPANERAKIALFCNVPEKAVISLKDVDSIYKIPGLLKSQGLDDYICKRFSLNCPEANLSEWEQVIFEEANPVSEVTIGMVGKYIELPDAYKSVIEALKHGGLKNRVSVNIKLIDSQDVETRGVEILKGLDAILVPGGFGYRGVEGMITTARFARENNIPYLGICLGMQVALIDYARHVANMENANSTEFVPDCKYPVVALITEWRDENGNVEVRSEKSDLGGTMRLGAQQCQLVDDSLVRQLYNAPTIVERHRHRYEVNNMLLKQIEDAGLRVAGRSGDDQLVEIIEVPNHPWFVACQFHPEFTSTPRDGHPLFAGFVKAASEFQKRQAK
# T2 sequence (P0A7E5 2-545 E277R): as the sequence (P0A7E5 2-545) above, with E276R counted along it
structure (smiles),measurement,setting,value
[N-]=[N+]=CC(=O)CC[C@H](N)C(=O)O [6-Diazo-5-oxo-L-norleucine],CTP production (transmittance at 291 nm) and light scattering of purified CtpS w,[1],"When added to activity buffer, DON abolishes both CTP production and CtpS polymerization"
Nc1ncnc2c1ncn2[C@@H]1O[C@H](COP(=O)(O)OP(=O)(O)O)[C@@H](O)[C@H]1O [ADP],cryo-EM difference density in the CtpS filament (8.4 Å),[2],Similarly strong density is found in the difference map in the positions of bound ADP.
Nc1ncnc2c1ncn2[C@@H]1O[C@H](COP(=O)(O)OP(=O)(O)OP(=O)(O)O)[C@@H](O)[C@H]1O [ATP],purified enzyme turnover; ATP with UTP depolymerizes and reactivates CtpS (light),[3],Addition of ATP and UTP depolymerized the sample.
Nc1ccn([C@@H]2O[C@H](COP(=O)(O)OP(=O)(O)OP(=O)(O)O)[C@@H](O)[C@H]2O)c(=O)n1 [CTP],IC50,[4],833 µM
O=c1ccn([C@@H]2O[C@H](CO[P@@](=O)(O)O[P@@](=O)(O)OP(=O)(O)O)[C@@H](O)[C@H]2O)c(=O)[nH]1 [UTP],purified enzyme turnover to CTP; UTP with ATP depolymerizes and reactivates CtpS,[5],"Upon addition of these substrate nucleotides, we observed a sharp decrease in light scattering"
NC(=O)CC[C@H](N)C(=O)O [glutamine],CTP production by purified enzyme initiated by glutamine,[6],CTP production was then initiated by the addition of glutamine to form a complete activity buffer.
